Patent US20100004459A1, “2-PHENYLNICOTINIC ACID DERIVATIVE” (NIPPON ZOKI PHARMACEUTICAL CO., LTD., priority 2006, published 2010)

Tests used:
xanthine oxidase = biological target: T1, xanthine oxidase (Bos taurus, UniProt P80457); experiment: Test for xanthine oxidase inhibitory activity; assay type: biochemical; conditions: xanthine oxidase derived from milk (Sigma); substrate xanthine; uric acid production at OD 292 nm, 37° C.
T1 construct: derived from milk; manufactured by Sigma; purchased Sigma; host or cells: milk (natural source)
Method: Evaluation of inhibitory activity of the present invention to xanthine oxidase was conducted using xanthine as a substrate by measuring the amount of uric acid produced by xanthine oxidase which is an oxidizing enzyme therefor. Thus, xanthine oxidase (0.01 unit/L, 20 μL/well; derived from milk; manufactured by Sigma), diethylenetriamine pentaacetate (0.01 mol/L, 20 μL/well), phosphate buffer (20 μL/well), distilled water (100 μL/well) and a diluted solution (20 μL/well) of a test substance were mixed in a 96-well quartz microplate. After preincubating for 5 minutes in a microplate spectrophotometer warmed at 37° C., xanthine (1 mmol/L, 20 μL/well) was added. The changes with elapse of time in OD 292 nm based on the production of uric acid was measured using a microplate spectrophotometer warmed at 37° C. whereby the initial reaction velocity was measured. Xanthine oxidase inhibitory activity was calculated by the following formula and concentration of the test substance for 50% suppression (IC50 value) was calculated.
Inhibition Rate(%)={[(Initial Reaction Velocity of the Reaction Control)-(Initial Reaction Velocity upon Addition of Test Substance)]/[Initial Reaction Velocity of the Reaction Control]}×100

[1] = system: model rats of fructose-loaded hypertriglyceridemia; experiment: Model rats of fructose-loaded hypertriglyceridemia: action for lowering of triglyceride in serum; assay type: in vivo; conditions: Rattus norvegicus, po; male SD rats, 75% fructose solution for three days; 100 mg/kg orally once daily; serum 2 hours after final administration; read-out: Inhibition Rate (%) Action for lowering of triglyceride
Method: (§1) The test was conducted according to a method of Kusama, et al. (Folia Pharmacologica Japonica, volume 92, pages 175 to 180, 1988). Thus, male rats of SD strain of 6 to 7 weeks age were made in free access to a 75% (w/v) D(−)-fructose solution for three days. During the period of fructose ingestion, a test substance (100 mg/kg) was suspended in 1% methyl cellulose and orally administered once daily. After 2 hours from the final administration, about 500 μL per rat of blood was collected using a hematocrit capillary from orbital venous plexus under anesthetization with ether and centrifuged (3000 rpm at 4° C. for 20 minutes) whereupon the serum was prepared.
(1) Action for Lowering of Triglyceride in Serum
The triglyceride (TG) in the serum was measured by a Triglyceride E-Test Wako (manufactured by Wako Pure Chemical Industries, Ltd.) and each TG lowering rate was determined by the following formula.
TG Lowering Rate(%)={[(TG Value of Control Animal)−(TG Value of Animal Administered with Test Substance)]/[(TG Value of Control Animal)-(TG Value of Untreated Animal)]}×100

[2] = system: model rats of fructose-loaded hypertriglyceridemia; experiment: Model rats of fructose-loaded hypertriglyceridemia: action for lowering of uric acid in serum; assay type: in vivo; conditions: Rattus norvegicus, po; male SD rats, 75% fructose solution for three days; 100 mg/kg orally once daily; serum 2 hours after final administration; read-out: Inhibition Rate (%) Action for lowering of uric acid
Method: as §1
(2) Action for Lowering of Uric Acid in Serum
Uric acid value in the serum was measured by a Uric acid C-Test Wako (manufactured by Wako Pure Chemical Industries, Ltd.) using the above serum and each uric acid lowering rate was determined by the following formula.
Uric Acid Lowering Rate(%)={[(Uric Acid Value of Control Animal)-(Uric Acid Value of Animals Administered with Test Substance)]/[Uric Acid Value of Control Animal]}×100

T1 sequence (P80457 whole entry): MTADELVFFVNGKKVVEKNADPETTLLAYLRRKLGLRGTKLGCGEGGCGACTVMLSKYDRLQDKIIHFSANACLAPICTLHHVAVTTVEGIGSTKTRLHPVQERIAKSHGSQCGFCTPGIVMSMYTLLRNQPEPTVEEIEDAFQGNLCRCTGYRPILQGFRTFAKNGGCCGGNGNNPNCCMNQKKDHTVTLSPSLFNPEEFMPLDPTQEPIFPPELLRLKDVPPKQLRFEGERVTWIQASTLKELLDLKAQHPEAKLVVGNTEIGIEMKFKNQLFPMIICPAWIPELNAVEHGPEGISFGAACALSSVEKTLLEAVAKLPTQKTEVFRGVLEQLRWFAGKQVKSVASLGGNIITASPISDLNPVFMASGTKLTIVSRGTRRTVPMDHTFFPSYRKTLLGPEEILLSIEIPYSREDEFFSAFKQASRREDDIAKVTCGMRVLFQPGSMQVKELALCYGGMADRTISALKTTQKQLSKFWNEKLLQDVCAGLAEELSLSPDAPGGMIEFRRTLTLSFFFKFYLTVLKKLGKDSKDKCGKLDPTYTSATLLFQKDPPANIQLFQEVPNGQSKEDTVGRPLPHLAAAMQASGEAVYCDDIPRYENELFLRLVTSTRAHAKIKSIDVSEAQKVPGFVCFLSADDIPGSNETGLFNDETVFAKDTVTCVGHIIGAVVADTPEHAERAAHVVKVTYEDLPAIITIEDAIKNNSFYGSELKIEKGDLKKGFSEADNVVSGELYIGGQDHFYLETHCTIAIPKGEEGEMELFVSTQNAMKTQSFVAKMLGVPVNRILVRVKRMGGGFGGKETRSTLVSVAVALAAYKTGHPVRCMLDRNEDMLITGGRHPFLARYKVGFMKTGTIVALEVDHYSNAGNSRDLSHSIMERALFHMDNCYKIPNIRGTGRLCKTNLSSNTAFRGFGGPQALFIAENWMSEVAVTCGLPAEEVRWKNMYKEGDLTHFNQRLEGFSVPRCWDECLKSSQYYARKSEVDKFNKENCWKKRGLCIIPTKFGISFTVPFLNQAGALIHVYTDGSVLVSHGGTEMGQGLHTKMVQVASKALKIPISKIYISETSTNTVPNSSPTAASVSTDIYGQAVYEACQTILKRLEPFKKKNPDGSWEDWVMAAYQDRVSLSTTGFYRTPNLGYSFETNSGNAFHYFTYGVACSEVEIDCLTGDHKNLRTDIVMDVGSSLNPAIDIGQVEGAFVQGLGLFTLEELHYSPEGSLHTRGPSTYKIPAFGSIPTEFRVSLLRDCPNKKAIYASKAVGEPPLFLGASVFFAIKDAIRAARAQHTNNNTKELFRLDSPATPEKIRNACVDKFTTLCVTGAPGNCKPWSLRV

| SMILES | melting point | IC50 (xanthine oxidase) | inhibition in vivo at 100 mg/kg [1] | inhibition in vivo at 100 mg/kg [2] |
| --- | --- | --- | --- | --- |
| COc1ccc(-c2ncccc2C(=O)O)cc1C#N [Example 43, 2-(3-Cyano-4-methoxyphenyl)nicotinic acid] | 254 to 255 °C |  |  |  |
| CC(C)COc1ccc(-c2ncccc2C(=O)O)cc1C#N [Example 44, 2-(3-Cyano-4-isobutoxyphenyl)nicotinic acid] | 178 to 179 °C | 91 nM |  |  |
| N#Cc1cc(-c2ncccc2C(=O)O)ccc1OCC1CC1 [Example 45, 2-(3-Cyano-4-cyclopropylmethoxyphenyl)nicotinic acid] | 203 to 204 °C |  |  |  |
| N#Cc1cc(-c2ncccc2C(=O)O)ccc1OCC1CCC1 [Example 46, 2-(3-Cyano-4-cyclobutylmethoxyphenyl)nicotinic acid] | 204 to 205 °C | 83 nM |  |  |
| N#Cc1cc(-c2ncccc2C(=O)O)ccc1OCCC1CCCCC1 [Example 48, 2-[3-Cyano-4-(2-cyclohexylethoxy)phenyl]nicotinic acid] | 171 to 172 °C | 38 nM |  |  |
| CCCCCCOc1ccc(-c2ncccc2C(=O)O)cc1C#N [Example 49, 2-(3-Cyano-4-hexyloxyphenyl)nicotinic acid] | 187 to 188 °C | 63 nM |  |  |
| N#Cc1cc(-c2ncccc2C(=O)O)ccc1OCc1ccc(C(F)(F)F)cc1 [Example 50, 2-[3-Cyano-4-(4-trifluoromethylbenzyloxy)phenyl]nicotinic acid] | 226 to 227 °C | 83 nM |  |  |
| COc1ccc(CCOc2ccc(-c3ncccc3C(=O)O)cc2C#N)cc1 [Example 53, 2-[3-Cyano-4-(4-methoxyphenethyloxy)phenyl]nicotinic acid] | 183 to 184 °C | 58 nM |  |  |
| N#Cc1cc(-c2ncccc2C(=O)O)ccc1OCCCc1ccccc1F [Example 60, 2-{3-Cyano-4-[3-(2-fluorophenyl)propoxy]phenyl}nicotinic acid] | 173 to 174 °C | 49 nM |  |  |
| N#Cc1cc(-c2ncccc2C(=O)O)ccc1OCCCc1ccc(F)cc1 [Example 61, 2-{3-Cyano-4-[3-(4-fluorophenyl)propoxy]phenyl}nicotinic acid] | 177 to 178 °C | 56 nM |  |  |
| N#Cc1cc(-c2ncccc2C(=O)O)ccc1OCCCCc1ccc(C(F)(F)F)cc1 [Example 63, 2-{3-Cyano-4-[4-(4-trifluoromethylphenyl)butoxy]phenyl}nicotinic acid] | 165 to 166 °C | 97 nM |  |  |
| N#Cc1cc(-c2ncccc2C(=O)O)ccc1OCCCCc1ccccc1F [Example 64, 2-{3-Cyano-4-[4-(2-fluorophenyl)butoxy]phenyl}nicotinic acid] | 151 to 152 °C | 33 nM |  |  |
| N#Cc1cc(-c2ncccc2C(=O)O)ccc1OCCCOc1ccc(OC(F)(F)F)cc1Cl [Example 69, 2-{4-[3-(2-Chloro-4-trifluoromethoxyphenoxy)propoxy]-3-cyanophenyl}nicotinic acid] | 159 to 160 °C | 58 nM |  |  |
| N#Cc1cc(-c2ncccc2C(=O)O)ccc1OCCCOc1ccc(Oc2ccccc2)cc1 [Example 71, 2-{3-Cyano-4-[3-(4-phenoxyphenoxy)propoxy]phenyl}nicotinic acid] | 149 to 150 °C | 90 nM |  |  |
| CCCCC(C)(C)COc1ccc(-c2ncccc2C(=O)O)cc1C#N [Example 73, 2-[3-Cyano-4-(2,2-dimethylhexyloxy)phenyl]nicotinic acid] | 155 to 156 °C | 21 nM |  |  |
| CCC1(COc2ccc(-c3ncccc3C(=O)O)cc2C#N)CCCC1 [Example 76, 2-[3-Cyano-4-(1-ethylcyclopentylmethoxy)phenyl]nicotinic acid] | 196 to 197 °C | 17 nM |  |  |
| CC(C)(COc1ccc(-c2ncccc2C(=O)O)cc1C#N)Cc1ccccc1 [Example 80, 2-[3-Cyano-4-(2,2-dimethyl-3-phenylpropoxy)phenyl]nicotinic acid] | 196 to 197 °C | 38 nM |  |  |
| CC(C)(CCc1ccccc1)COc1ccc(-c2ncccc2C(=O)O)cc1C#N [Example 81, 2-[3-Cyano-4-(2,2-dimethyl-4-phenylbutoxy)phenyl]nicotinic acid] | 172 to 173 °C | 16 nM |  |  |

| SMILES | melting point | IC50 (xanthine oxidase) | inhibition in vivo at 100 mg/kg [1] | inhibition in vivo at 100 mg/kg [2] |
| --- | --- | --- | --- | --- |
| CS(=O)(=O)Oc1ccc(CCOc2ccc(-c3ncccc3C(=O)O)cc2C#N)cc1 [Example 86, 2-{3-Cyano-4-[2-(4-methanesulfonyloxyphenyl)ethoxy]phenyl}nicotinic acid] |  | 99 nM |  |  |
| CC(C)(C)c1cc(CCCOc2ccc(-c3ncccc3C(=O)O)cc2C#N)cc(C(C)(C)C)c1O [Example 88] |  | 47 nM |  |  |
| CC(C)(C)c1cc(CCCCOc2ccc(-c3ncccc3C(=O)O)cc2C#N)cc(C(C)(C)C)c1O [Example 90, 2-{3-Cyano-4-[4-(3,5-di-tert-butyl-4-hydroxyphenyl)butoxy]phenyl}nicotinic acid] |  | 37 nM |  |  |
| N#Cc1cc(-c2ncccc2C(=O)O)ccc1OCCc1ccccc1Cl [Example 100, 2-{4-[2-(2-Chlorophenyl)ethoxy]-3-cyanophenyl}nicotinic acid] |  | 65 nM | 40.8% | 58.2% |
| COc1ccc(CC(C)(C)COc2ccc(-c3ncccc3C(=O)O)cc2C#N)cc1 [Example 104, 2-{3-Cyano-4-[2,2-dimethyl-3-(4-methoxyphenyl)propoxy]phenyl}nicotinic acid] |  | 13 nM |  |  |
| CC(C)(COc1ccc(-c2ncccc2C(=O)O)cc1C#N)Cc1ccc(C(F)(F)F)cc1 [Example 106, 2-{3-Cyano-4-[2,2-dimethyl-3-(4-trifluoromethylphenyl)propoxy]phenyl}nicotinic acid] |  | 25 nM |  |  |
| COc1ccccc1CC(C)(C)COc1ccc(-c2ncccc2C(=O)O)cc1C#N [Example 112, 2-{3-Cyano-4-[2,2-dimethyl-3-(2-methoxyphenyl)propoxy]phenyl}nicotinic acid] |  | 28 nM |  |  |
| N#Cc1cc(-c2ncccc2C(=O)O)ccc1OCCCc1ccccc1 [Example 116, 2-[3-Cyano-4-(3-phenylpropoxy)phenyl]nicotinic acid] |  | 52 nM |  |  |
| N#Cc1cc(-c2ncccc2C(=O)O)ccc1OCCCc1ccccc1C(F)(F)F [Example 118, 2-{3-Cyano-4-[3-(2-trifluoromethylphenyl)propoxy]phenyl}nicotinic acid] |  | 12 nM |  |  |
| COc1ccc(CCCOc2ccc(-c3ncccc3C(=O)O)cc2C#N)cc1 [Example 120, 2-{3-Cyano-4-[3-(4-methoxyphenyl)propoxy]phenyl}nicotinic acid] |  | 35 nM |  |  |
| COc1ccc(C(C)(C)COc2ccc(-c3ncccc3C(=O)O)cc2C#N)cc1 [Example 122, 2-{3-Cyano-4-[2-methyl-2-(4-methoxyphenyl)propoxy]phenyl}nicotinic acid] |  | 91 nM |  |  |
| N#Cc1cc(-c2ncccc2C(=O)O)ccc1OCCCCc1ccccc1C(F)(F)F [Example 126, 2-{3-Cyano-4-[4-(2-trifluoromethylphenyl)butoxy]phenyl}nicotinic acid] |  | 26 nM |  |  |
| Cc1ccc(C)c(CCOc2ccc(-c3ncccc3C(=O)O)cc2C#N)c1 [Example 130, 2-[3-Cyano-4-(2,5-dimethylphenethyloxy)phenyl]nicotinic acid] |  | 72 nM |  |  |
| CC(C)(COc1ccc(-c2ncccc2C(=O)O)cc1C#N)Cc1ccccc1C(F)(F)F [Example 132, 2-{3-Cyano-4-[2,2-dimethyl-3-(2-trifluoromethylphenyl)propoxy]phenyl}nicotinic acid] |  | 15 nM |  |  |
| COc1ccc(CCCCOc2ccc(-c3ncccc3C(=O)O)cc2C#N)cc1 [Example 134, 2-{3-Cyano-4-[4-(4-methoxyphenyl)butoxy]phenyl}nicotinic acid] |  | 18 nM |  |  |
| N#Cc1cc(-c2ncccc2C(=O)O)ccc1N1CCCCCC1 [Example 138, 2-(4-Azepan-1-yl-3-cyanophenyl)nicotinic acid] |  | 34 nM |  |  |
| CC(C)(C)COc1ccc(-c2ncc(F)cc2C(=O)O)cc1C#N [Example 140, 2-[3-Cyano-4-(2,2-dimethylpropoxy)phenyl]-5-fluoronicotinic acid] |  | 40 nM |  |  |
